Reference: patent publication US20080090805A1, “CB-1 MODULATING COMPOUNDS AND THEIR USE” (ACADIA PHARMACEUTICALS INC., priority 2005, published 2008)
Read-outs that look alike come from different tables or passages of the source.

Molecular target: CB1 (mutant) (Homo sapiens, UniProt P21554)
Test: R-SAT functional receptor assay, CB1 (mutant, truncated after amino acid 417)
Assay type: cell-based
Conditions: R-SAT CB1; for Emax / % Inhibition: receptor form not stated, relative to SR141716 (100%); for Emax: read-out: % Inhibition; for IC50: receptor form (mutant or wild-type) not stated
[1] = Appendix A, read-out: pIC50 (converted)

CB1 (mutant), sequence (P21554 1-417, change not shown): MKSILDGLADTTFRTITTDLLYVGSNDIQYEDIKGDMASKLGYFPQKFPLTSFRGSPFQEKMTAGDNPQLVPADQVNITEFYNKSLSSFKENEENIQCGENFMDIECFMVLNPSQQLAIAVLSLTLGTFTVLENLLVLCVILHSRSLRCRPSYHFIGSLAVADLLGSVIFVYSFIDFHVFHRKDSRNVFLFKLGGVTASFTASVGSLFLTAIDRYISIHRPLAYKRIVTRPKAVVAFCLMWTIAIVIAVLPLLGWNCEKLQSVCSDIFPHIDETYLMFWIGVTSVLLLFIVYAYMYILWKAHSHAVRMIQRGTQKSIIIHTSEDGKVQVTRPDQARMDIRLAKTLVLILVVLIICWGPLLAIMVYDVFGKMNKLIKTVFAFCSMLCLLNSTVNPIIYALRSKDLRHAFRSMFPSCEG

Emax (Appendix A) [%] | IC50 [1] [nM] | % Inhibition (Appendix A) [%] | SMILES | IC50 (pIC50, Appendix A) [nM]
110 | 20 | – | CC(C)CNC(=O)c1ccc2c(c1)N=C(c1ccc(Cl)cc1)c1ccc(F)cc1S2 [drawing 949] | –
– | 20 | 108 | O=C(NC1CCCCC1)c1ccc2c(c1)N=C(c1ccc(F)cc1)c1ccccc1S2 [drawing 951] | –
79 | 20 | – | Cc1ccc(CNC(=O)c2ccc3c(c2)N=C(c2sccc2C)c2ccccc2S3)o1 [drawing 953] | –
102 | 20 | – | O=C(NCc1ccccc1Cl)c1ccc2c(c1)N=C(c1cccc(Cl)c1)c1ccccc1S2 [drawing 955] | –
112 | 20 | – | O=C(NN1CCCCC1)c1ccc2c(c1)N=C(c1ccc(Cl)cn1)c1ccccc1S2 [drawing 959] | –
108 | 20 | – | O=C(NCc1ccc(F)cc1)c1ccc2c(c1)N=C(c1ccc(Cl)cc1)c1ccccc1S2(=O)=O [drawing 961] | –
– | 20 | 95 | COCCNC(=O)c1ccc2c(c1)N=C(c1ccc(Cl)s1)c1ccccc1S2 [drawing 963] | –
104 | 20 | – | COc1ccc(C2=Nc3cc(C(=O)NCCC(C)C)ccc3Sc3ccccc32)cc1 [drawing 965] | –
– | 20 | – | CC(C)CCNC(=O)c1ccc2c(c1)N=C(c1ccccn1)c1ccccc1S2 [drawing 967] | –
– | 20 | 105 | CCCNC(=O)c1ccc2c(c1)N=C(c1ccc(Cl)cc1)c1ccccc1S2 [drawing 969] | –
94 | 316 | – | Cc1ccc(N2CCN(C(=O)c3ccc4c(c3)N=C(c3ccc(Cl)cc3)c3ccccc3S4)CC2)c(C)c1 [drawing 970] | –
108 | 20 | – | O=C(NCCc1cccc(Cl)c1)c1ccc2c(c1)N=C(N1CCCCC1)c1ccccc1S2 [drawing 973] | –
95 | 20 | – | O=C(NCc1ccncc1)c1ccc2c(c1)N=C(c1cccc(Br)c1)c1ccccc1S2 [drawing 977] | –
110 | 25.1 | – | CC(C)CNC(=O)c1ccc2c(c1)N=C(c1ccc(Cl)s1)c1ccc(Cl)cc1S2 [drawing 983] | –
109 | 25.1 | – | CCCCNC(=O)c1ccc2c(c1)N=C(c1ccc(Cl)cc1)c1ccc(F)cc1S2 [drawing 985] | –
105 | 25.1 | – | O=C(NN1CCCCC1)c1ccc2c(c1)N=C(c1ccc(Cl)c(Cl)c1)c1ccccc1S2 [drawing 989] | –
110 | 25.1 | – | O=C(NN1CCCCC1)c1ccc2c(c1)N=C(c1ccc(Cl)c(F)c1)c1ccccc1S2 [drawing 991] | –
92 | 25.1 | – | O=C(NN1CCCCC1)c1ccc2c(c1)N=C(c1ccc(Br)cc1)c1ccccc1S2 [drawing 993] | –
107 | 25.1 | – | CCCCNC(=O)c1ccc2c(c1)N=C(c1ccc(Cl)s1)c1cc(Cl)ccc1S2 [drawing 995] | –
110 | 25.1 | – | CCCCNC(=O)c1ccc2c(c1)N=C(c1cccc(Cl)c1)c1cc(Cl)ccc1S2 [drawing 997] | –
– | 25.1 | 91 | O=C(NCCc1ccccn1)c1ccc2c(c1)N=C(c1cccc(Cl)c1)c1ccccc1S2 [drawing 999] | –
102 | 25.1 | – | O=C(NCCc1cccc(Cl)c1)c1ccc2c(c1)N=C(C1CCCCC1)c1ccccc1S2 [drawing 1001] | –

Emax (Appendix A) [%] | IC50 [1] [nM] | % Inhibition (Appendix A) [%] | SMILES | IC50 (pIC50, Appendix A) [nM]
– | 25.1 | 92 | O=C(NCCc1ccccn1)c1ccc2c(c1)N=C(c1ccc(Cl)cc1)c1ccccc1S2 [drawing 1005] | –
106 | 25.1 | – | O=C(NCc1cccnc1)c1ccc2c(c1)N=C(c1ccc(Br)cc1)c1ccccc1S2 [drawing 1007] | –
92 | 25.1 | – | O=C(NN1CCCCCC1)c1ccc2c(c1)N=C(c1ccc(F)cc1)c1ccccc1S2 [drawing 1009] | –
101 | 501 | – | CCCCNC(=O)c1ccc2c(c1)N=C(c1ccc(Cl)s1)c1ccc(F)cc1S2 [drawing 1010] | –
117 | 25.1 | – | O=C(NCc1ccccc1Cl)c1ccc2c(c1)N=C(N1CCCCC1)c1ccccc1S2 [drawing 1013] | –
96 | 25.1 | – | O=C(NCc1ccccc1)c1ccc2c(c1)N=C(c1ccccc1F)c1ccccc1S2 [drawing 1015] | –
105 | 25.1 | – | CC(CNC(=O)c1ccc2c(c1)N=C(N1CCCCC1)c1ccccc1S2)c1ccccc1 (stereo not drawn) [drawing 1017] | –
106 | 25.1 | – | O=C(NCCc1ccccc1)c1ccc2c(c1)N=C(N1CCCCC1)c1ccccc1S2 [drawing 1019] | –
96 | 25.1 | – | CC(C)CNC(=O)c1ccc2c(c1)N=C(c1ccccn1)c1ccccc1S2 [drawing 1021] | –
106 | 25.1 | – | O=C(NCCc1ccccc1)c1ccc2c(c1)N=C(c1ccccc1)c1ccccc1S2 [drawing 1023] | –
115 | 25.1 | – | COCCNC(=O)c1ccc2c(c1)N=C(c1cccc(F)c1)c1ccccc1S2 [drawing 1025] | –
110 | 25.1 | – | O=C(NCCc1cccnc1)c1ccc2c(c1)N=C(c1ccc(Cl)s1)c1ccccc1S2 [drawing 1029] | –
94 | 25.1 | – | O=C(NCCc1ccncc1)c1ccc2c(c1)N=C(c1ccc(F)cc1)c1ccccc1S2 [drawing 1031] | –
119 | 25.1 | – | O=C(NCCc1cccnc1)c1ccc2c(c1)N=C(c1ccc(F)cc1)c1ccccc1S2 [drawing 1033] | –
114 | 25.1 | – | O=C(NCc1cccnc1)c1ccc2c(c1)N=C(c1ccccc1F)c1ccccc1S2 [drawing 1035] | –
118 | 25.1 | – | O=C(NCc1cccs1)c1ccc2c(c1)N=C(c1ccccn1)c1ccccc1S2 [drawing 1037] | –
76 | 31.6 | – | Cc1ccc(CNC(=O)c2ccc3c(c2)N=C(c2ccc(Cl)cc2F)c2ccccc2S3)o1 [drawing 1039] | –
– | 31.6 | 96 | O=C(NN1CCCCCC1)c1ccc2c(c1)N=C(c1ccc(Cl)cc1)c1ccccc1S2 [drawing 1041] | –
100 | 31.6 | – | Cc1ccsc1C1=Nc2cc(C(=O)NN3CCCCC3)ccc2Sc2ccccc21 [drawing 1045] | –
101 | 31.6 | – | Cc1ccsc1C1=Nc2cc(C(=O)NCCC(F)(F)F)ccc2Sc2ccccc21 [drawing 1047] | –
93 | 31.6 | – | O=C(NCCc1ccccn1)c1ccc2c(c1)N=C(c1ccc(Cl)cc1)c1ccccc1S2 [drawing 1049] | –
98 | 31.6 | – | CCCC1=Nc2cc(C(=O)NCCc3cc(OC)ccc3OC)ccc2Sc2ccccc21 [drawing 1051] | –

SMILES | Emax (Appendix A) [%] | IC50 [1] [nM] | % Inhibition (Appendix A) [%] | IC50 (pIC50, Appendix A) [nM]
Cc1ccc(CNC(=O)c2ccc3c(c2)N=C(c2cccc(F)c2)c2ccccc2S3)o1 [drawing 947] | 69 | – | – | 20
CCCC1=Nc2cc(C(=O)NC3CCC(C)CC3)ccc2Sc2ccccc21 (stereo not drawn) [drawing 975] | 114 | – | – | 20
O=C(NCCc1cccnc1)c1ccc2c(c1)N=C(c1cccc(F)c1)c1ccccc1S2 [drawing 981] | 94 | – | – | 20
O=C(NN1CCCCC1)c1ccc2c(c1)N=C(C1CCCCC1)c1ccccc1S2 [drawing 987] | – | – | 101 | –
CCCC1=Nc2cc(C(=O)NCCc3ccc(Cl)cc3)ccc2Sc2ccccc21 [drawing 1003] | 110 | – | – | 25.1
